Earlier results in patent publication US8697862B2, “Synthesis of galactoside inhibitors” (Galecto Biotech AB, priority 2008, dated 2014).

Test system: galectins

Compound | affinity, times lower than lactose (relative to lactose) | Kd (all galectins)
O=C[C@H](O)[C@@H](O)[C@@H](O)[C@H](O)CO [D-galactose] | 50-100 times | 
OC[C@H]1O[C@@H](O[C@H]2[C@H](O)[C@@H](O)C(O)O[C@@H]2CO)[C@H](O)[C@@H](O)[C@H]1O (some centres unmarked) [lactose] |  | 500 to 1000 µM
